Broadly, the IC50 is the concentration that gives 50% inhibition.

Molecules are shown by their SMILES. Like-named read-outs stand apart in the source and are kept apart here.

The test system of one series is IKr. The note with it: cited from earlier work.
Series [1] addresses T1, IKr (rapidly activating delayed rectifier K+ current) (Cavia porcellus, UniProt O08703).
T1 construct: Guinea pig ventricular myocytes were isolated; endogenous in cells; host or cells: isolated guinea pig ventricular myocytes
T1 sequence (O08703 1-1294): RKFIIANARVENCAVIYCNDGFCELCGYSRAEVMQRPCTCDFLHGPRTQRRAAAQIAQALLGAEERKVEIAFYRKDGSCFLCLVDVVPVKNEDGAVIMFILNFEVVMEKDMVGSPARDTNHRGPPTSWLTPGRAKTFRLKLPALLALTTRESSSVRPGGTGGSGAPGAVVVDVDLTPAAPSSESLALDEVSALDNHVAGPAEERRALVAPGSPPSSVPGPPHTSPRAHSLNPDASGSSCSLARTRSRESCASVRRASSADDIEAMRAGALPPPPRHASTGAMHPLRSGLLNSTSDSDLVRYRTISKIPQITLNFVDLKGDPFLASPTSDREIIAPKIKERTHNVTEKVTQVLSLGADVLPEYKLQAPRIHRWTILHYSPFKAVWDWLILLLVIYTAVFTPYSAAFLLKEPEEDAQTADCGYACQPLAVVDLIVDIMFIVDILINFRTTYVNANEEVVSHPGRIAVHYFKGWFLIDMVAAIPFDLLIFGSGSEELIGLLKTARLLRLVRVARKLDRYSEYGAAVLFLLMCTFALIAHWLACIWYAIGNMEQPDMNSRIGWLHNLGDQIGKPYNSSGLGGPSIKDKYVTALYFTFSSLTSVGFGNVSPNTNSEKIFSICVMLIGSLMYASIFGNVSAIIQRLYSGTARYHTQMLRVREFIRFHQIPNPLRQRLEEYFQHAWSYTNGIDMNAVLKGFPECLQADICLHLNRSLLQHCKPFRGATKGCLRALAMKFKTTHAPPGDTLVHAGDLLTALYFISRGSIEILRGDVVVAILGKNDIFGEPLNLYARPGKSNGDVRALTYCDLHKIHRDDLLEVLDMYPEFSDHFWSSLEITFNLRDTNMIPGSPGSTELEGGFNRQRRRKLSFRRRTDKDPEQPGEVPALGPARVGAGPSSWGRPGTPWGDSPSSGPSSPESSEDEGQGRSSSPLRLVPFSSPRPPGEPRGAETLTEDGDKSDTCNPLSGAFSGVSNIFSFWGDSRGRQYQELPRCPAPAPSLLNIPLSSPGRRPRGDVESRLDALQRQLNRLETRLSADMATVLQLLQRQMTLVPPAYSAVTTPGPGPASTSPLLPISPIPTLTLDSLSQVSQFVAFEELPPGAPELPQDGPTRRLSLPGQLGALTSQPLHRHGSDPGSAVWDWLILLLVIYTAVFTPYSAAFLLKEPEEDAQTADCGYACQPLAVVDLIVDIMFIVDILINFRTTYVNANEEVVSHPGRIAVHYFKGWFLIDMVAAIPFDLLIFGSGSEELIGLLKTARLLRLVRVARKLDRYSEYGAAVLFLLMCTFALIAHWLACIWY
Description: voltage clamp measurement of IKr block in isolated guinea pig ventricular myocytes. It counts as cell-based. As to the method:
(§1) Guinea pig ventricular myocytes were isolated using a modification of the procedure described by Mitra R and Morad M., "A Uniform Enzymatic Method for Dissociation of Myocytes from Hearts and Stomachs of Nertilorates", Am. J. Physiol. […] Excised hearts were perfused through the aorta (retrograde fashion) at a rate of 10 ml/min with oxygenated, warmed (37° C.) solutions described below. […] The head was then perfused with the same nominally Ca^2+ -free solution containing 150 units/ml Type II collagenase (Worthington) and 0.5 units/ml Type XIV protease (Sigma) for 8 minutes. This perfusate was followed by a Tyrode's solution containing 0.2 mM CaCl2 (without enzymes) for 5 minutes. The digested ventricles were cut into small pieces and gently shaken until cells were visibly dispersed. The cells were stored at room temperature until use, within 8 hours after isolation.
(§2) The suction microelectrode technique described by Giles, W. R. and Shibata, E. F., "Voltage clamp of bull-frog cardiac pacemaker cells: a quantitative, analysis of potassium currents". J. Physiol. […] Microelectrodes were made by using a two stage puller from square bore (1.0 mm o.d.) borosilicate capillary tubing. […] After establishing whole-cell recording mode, negative pressure was maintained on the pipette using a 1 ml gas-tight syringe attached via air tight tubing to the suction port of the microelectrode holder. This minimized dialysis of the cell with the pipette solution.
(§3) To record K^+ currents, the cells were bathed in a Ca^2+ -free Tyrode's :solution containing […] nisoldipine. […] A List EPC-7 clamp amplifier was used to voltage clamp the isolated cells. […] A variety of voltage pulse protocols were used to measure Ca^2+ current and three types of K^+ currents: inward rectifier (IK1), rapidly activating delayed rectifier (IKr) and the slowly activating delayed rectifier (IKs). Sanguinetti M. C. and Jurkiewicz, N. K., "Two components of cardiac delayed rectifier K^+ current: Differential sensitivity to block by Class III antiarrhythmic agents". […] Data was analyzed as % block from control membrane currents.
(§4) Nisoldipins was prepared as a 4 mM stock solution in polyethylne glycol 200. Compounds tested in this series were prepared as 10 mM stock solutions in polyethylene glycol 400 or dimethyl sulfoxide.

Series [2] addresses T2, IKs (slowly activating delayed rectifier K+ current) (Cavia porcellus, UniProt O70344).
T2 construct: Guinea pig ventricular myocytes were isolated; endogenous in cells; host or cells: isolated guinea pig ventricular myocytes
Description: cell-based. In kind it is cell-based, guinea pig. As to the method: Current amplitude is measured as the difference from the initial instantaneous current level following the capacitance discharge after changing the transmembrane voltage from -50 mV to +50 mV, to the current level at the end of the 1 second voltage step. Normally, an increase in the current amplitude occurs as a function of time and voltage during depolarization of the cardiac cell membrane and this increasing current has been defined as the delayed rectifier K^+ current (IK). […] IKs current occurs as a consequence of time- and voltage-dependent opening of ionic channels or pores in the cardiac cell membrane that allow the relatively selective flow of potassium ions (K^+) from the inside to the outside of the cell, that is, down the voltage and concentration gradient for K^+ ions that is inherent in cardiac cells. Thus, block of the IKs current ultimately reflects block of certain ion channels or pores in the cardiac cell membrane. However, the single pores or channels thought to underlie the IKs current have yet to be measured or identified at the single channel level.
as §1, §2, §3, §4

The subject of a further series is K+ currents. The note with it: 0.4 mM nisoldipine; cited from earlier work.
In the next series the test system is L-type Ca2+ channels. As to conditions: 0.4 mM nisoldipine; cited from earlier work.
The next series concerns thyroid function. The note with it: cited from earlier work.
For another series, the system named is adrenergic. The note with it: cited from earlier work.
A further series has as its system Ca2+ currents. The note with it: cited from earlier work.
In a further series the test system is phospholipase. The note with it: cited from earlier work.
For a further series, the system named is Na+ currents. The note with it: cited from earlier work.
For another series, the system named is IKs. As to conditions: cited from earlier work.
For series [3] the following is noted: cited from earlier work.
The mark [4] stands for this setting: read-out: IC50 or % Block (μM), IKr (% block).
Setting [5] is: 1 μM, read-out: Cellular Electrophysiology (% Block), IKr.
Where [6] appears, read: 10 μM, read-out: Cellular Electrophysiology (% Block), IKr.
Where [7] appears, read: 1 μM, read-out: Cellular Electrophysiology (% Block), IKs.
Where [8] appears, read: 10 μM, read-out: Cellular Electrophysiology (% Block), IKs.
Setting [9] is: read-out: Cellular Electrophysiology (% Block), IKr.
[10] abbreviates: read-out: Cellular Electrophysiology (% Block), IKs.

For the compound `CS(=O)(=O)Nc1ccc2c(c1)C(O)CC1(CCN(C3CCc4cc(C#N)ccc4C3)CC1)O2` (single isomer, unassigned), the “block of IKr” value in the series on IKr is “predominantly, if not exclusively, block IKr”.
For the compound `CN1C(=O)[C@H](NC(=O)c2cc3ccccc3[nH]2)N=C(c2ccccc2)c2ccccc21` [Compound 1, 3(R)-(+)-1,3-dihydro-3-(2-indolecarbonylamino)-1-methyl-5-phenyl-2H-1,4-benzodiazepin-2-one], the inhibition at 1 µM in series [1] (setting [4]) is 20%.
Take `CN1C(=O)[C@@H](NC(=O)c2cc3ccccc3[nH]2)N=C(c2ccccc2)c2ccccc21` [Compound 2, 3(S)-(-)-1,3-dihydro-3-(2-indolecarbonylamino)-1-methyl-5-phenyl-2H-1,4-benzodiazepin-2-one]: the inhibition at 1 µM was determined as 21% in [1] (setting [4]) and 25% in series [2] (read-out: IC50 or % Block (μM), IKs (% block)).
For the compound `CC(C)S(=O)(=O)NC(=O)c1cccc(NC(=O)NC2N=C(C3CCCCC3)c3ccccc3N(C)C2=O)c1` (stereo not shown) [Example 5], the results for the inhibition at 1 µM in series [1] (setting [5]) and in [2] (setting [7]) were 16.1% and 10%, respectively. The inhibition at 10 µM in series [1] (setting [6]) is 24.7 ± 13%; in [2] (setting [8]), 30.5 ± 6.6%. The IC50 in series [1] (Guinea Pig Myocytes, read-out: IC50 or % Block (μM), IKr (bare number: IC50)) came out at 77 µM; in series [2] (Guinea Pig Myocytes, read-out: IC50 or % Block (μM), IKs (bare number: IC50)) it was 57 µM.
Take `CN1C(=O)[C@H](N)N=C(c2ccccc2)c2ccccc21` [Example 7]: in series [1] (setting [9]), the inhibition at 1 µM is 14.8 ± 6.7% and the inhibition at 10 µM was 36.4 ± 2.9%. In addition, in [2] (setting [10]), the inhibition at 1 µM was 29.9 ± 6% and the inhibition at 10 µM was found to be 43.4 ± 10.8%.
`CN1C(=O)C(NC(=O)c2cc3ccccc3[nH]2)N=C(c2ccncc2)c2ccccc21` (stereo not shown) [Example 9]: the inhibition at 1 µM in series [1] (setting [5]) stood at 44.3%; in [2] (setting [7]) it was 20%. Moreover, the inhibition at 10 µM stood at 82.4% in series [1] (setting [6]) and 66% in [2] (setting [8]).
Consider `Cc1cccc(NC(=O)NC2N=C(N3CCOCC3)c3ccccc3N(C)C2=O)c1` (stereo not shown) [Example 12], for which, in [1] (setting [5]), the inhibition at 1 µM worked out at 13 ± 3.1%. Besides, the inhibition at 10 µM in [1] (setting [6]) amounted to 30 ± 5.4%; in series [2] (setting [8]), 16 ± 11%.
Turning to `CN1C(=O)[C@H](NC(=O)C2CCC3(CC2)CCN(C(=O)OC(C)(C)C)CC3)N=C(c2ccccc2)c2ccccc21` [Example 40, (+)-N-[(3R)-2,3-Dihydro-1-methyl-2-oxo-5-phenyl-1H-1,4-benzo-diazepin-3-yl]-1'-(1,1-dimethylethoxycarbonyl)spiro(cyclohexan-4,4'-piperidine)-1-carboxamide], the “IKs inhibition, purity of action” value in [2] (in words) is reported as “not a pure IKs inhibitor”.
In the case of `COC(=O)C1=C(C)NC(C)=C(C(=O)OCC(C)C)C1c1ccccc1[N+](=O)[O-]` (stereo not shown) [Nisoldipine], the “effect on K+ currents” value in the series on K+ currents is “no effect on K^+ currents”. Further, the “block of L-type Ca2+ channels” value in the series on L-type Ca2+ channels was “relatively specific blocker of L-type Ca^2+ channels”.
For `CCCCc1oc2ccccc2c1C(=O)c1cc(I)c(OCCN(CC)CC)c(I)c1` [amiodarone], in the series on thyroid function, the “effect on thyroid function” value is “effects thyroid function”. The adrenergic block result with adrenergic was “nonspecific adrenergic blocker”. Moreover, the “block of Ca2+ currents” value in the series on Ca2+ currents was “blocks Na^+ and Ca^2+ currents”. In the series on phospholipase, the inhibition of phospholipase entry was “inhbitor of the enzyme phospholipase”. For the same compound, in the series on Na+ currents, the “block of Na+ currents” value is “blocks Na^+ and Ca^2+ currents”. Moreover, the “block of IKs” value with IKs was “blocker of IKs”. Further, the “Class III properties / selectivity” value in series [3] is “interesting Class III properties”; in [3] (listed as Amiodarone), “not a selective Class III antiarrhythmic agent”.
For the compound `CC(C)NCC(O)c1ccc(NS(C)(=O)=O)cc1` (stereo not drawn) [d-sotalol], in the series on IKr, the “block of IKr” value is reported as “predominantly, if not exclusively, block IKr”.
As for `CN(CCOc1ccc(NS(C)(=O)=O)cc1)CCc1ccc(NS(C)(=O)=O)cc1` [dofetilide], the “block of IKr” value with IKr was “predominantly, if not exclusively, block IKr”.

The values above are taken from patent publication US5428031A, “Methods of treating cardiac arrhythmia” (priority 1993, dated 1995).
